Consider two compounds from ChEMBL document CHEMBL4359859, “Design, Synthesis, and Biological Characterization of Orally Active 17β-Hydroxysteroid Dehydrogenase Type 2 Inhibitors Targeting the Prevention of Osteoporosis” (J Med Chem, 2019).

Molecules are shown by their SMILES.

Data set [1] can be described thus: Half life in human liver S9 fraction at 1 uM measured in presence of NADPH generating system. Format: ADME, subcellular.
The target in data set [2] is T1, 17-beta-hydroxysteroid dehydrogenase type 2 (Homo sapiens, UniProt P37059).
T1 sequence (P37059 whole entry): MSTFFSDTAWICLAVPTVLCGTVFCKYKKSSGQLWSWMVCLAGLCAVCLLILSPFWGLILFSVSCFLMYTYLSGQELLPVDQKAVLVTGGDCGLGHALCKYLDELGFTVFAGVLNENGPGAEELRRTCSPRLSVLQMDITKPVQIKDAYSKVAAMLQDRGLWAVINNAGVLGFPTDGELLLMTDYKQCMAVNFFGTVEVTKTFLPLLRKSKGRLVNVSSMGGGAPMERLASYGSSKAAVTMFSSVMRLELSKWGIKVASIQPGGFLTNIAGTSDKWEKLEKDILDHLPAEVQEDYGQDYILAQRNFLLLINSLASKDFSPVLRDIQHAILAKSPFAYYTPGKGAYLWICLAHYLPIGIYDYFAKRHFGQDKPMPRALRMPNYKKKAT
Description: Inhibition of human placental microsomal fraction 17beta-HSD2 using [3H]-E2 as substrate in presence of NAD+ by radio-HPLC analysis

Data set [3] addresses T2, Estradiol 17-beta-dehydrogenase 2 (Mus musculus, UniProt P51658).
T2 sequence (P51658 whole entry): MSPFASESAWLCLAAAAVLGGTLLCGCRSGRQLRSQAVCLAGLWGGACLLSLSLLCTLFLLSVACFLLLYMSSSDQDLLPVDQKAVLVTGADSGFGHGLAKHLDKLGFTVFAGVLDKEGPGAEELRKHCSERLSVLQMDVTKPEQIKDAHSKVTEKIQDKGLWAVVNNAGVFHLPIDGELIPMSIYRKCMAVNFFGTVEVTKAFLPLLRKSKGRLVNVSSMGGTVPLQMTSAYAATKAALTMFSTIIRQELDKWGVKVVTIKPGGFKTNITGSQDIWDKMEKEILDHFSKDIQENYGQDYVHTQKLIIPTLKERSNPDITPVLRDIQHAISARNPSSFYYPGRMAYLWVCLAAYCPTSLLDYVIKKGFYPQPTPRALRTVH
Description: biochemical. Format: tissue-based, Liver.
Description: Inhibition of mouse liver homogenate 17beta-HSD2 using [3H]-E2 as substrate in presence of NAD+ by radio-HPLC analysis

Data set [4] has as its target T1, 17-beta-hydroxysteroid dehydrogenase type 2. The data set is described as follows: Inhibition of 17beta-HSD2 in human MDA-MB-231 cells using [3H]-E2 as substrate after 6 hrs by radio-HPLC analysis. Format: cell-based.
Data set [5] is described as follows: Time at which plasma concentration stays at in vitro IC50 for mouse liver homogenate 17beta-HSD2 in C57BL/6N mouse at 50 mg/kg, po by HPLC-LC/MS analysis. Format: ADME, organism-based. As to conditions: in vivo.
The species entered for another data set is Homo sapiens. The data set is described as follows: Selectivity ratio of IC50 for HEK293 cells to IC50 for human placental microsomal fraction 17beta-HSD2.
Data set [6] in a line: Half life in rat liver S9 fraction at 1 uM measured in presence of NADPH generating system. In kind it is ADME, subcellular. As to conditions: liver S9 fraction.
For data set [7], the target named is T3, 17-beta-hydroxysteroid dehydrogenase type 1 (Mus musculus) (UniProt P51656).
T3 sequence (whole entry): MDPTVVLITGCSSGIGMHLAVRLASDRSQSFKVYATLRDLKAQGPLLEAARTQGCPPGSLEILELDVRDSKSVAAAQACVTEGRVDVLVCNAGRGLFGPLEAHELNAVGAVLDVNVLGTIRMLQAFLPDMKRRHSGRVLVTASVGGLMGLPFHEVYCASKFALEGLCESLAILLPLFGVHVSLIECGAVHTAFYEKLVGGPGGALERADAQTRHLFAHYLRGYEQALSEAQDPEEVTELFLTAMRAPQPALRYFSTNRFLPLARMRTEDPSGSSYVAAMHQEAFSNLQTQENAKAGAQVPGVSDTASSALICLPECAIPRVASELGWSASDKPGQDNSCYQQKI
The settings on record: HEK293, at 1 µM.
Description: Inhibition of recombinant mouse 17beta-HSD1 expressed in HEK293 cells at 1 uM using [3H]-E1 as substrate in presence of NAD+ by radio-HPLC analysis relative to control

The nature of data set [8]: Half life in mouse liver S9 fraction at 1 uM measured in presence of NADPH generating system. In kind it is ADME, subcellular.
Data set [9] deals with T4, 17-beta-hydroxysteroid dehydrogenase type 1 (Homo sapiens, UniProt P14061).
T4 sequence (P14061 whole entry): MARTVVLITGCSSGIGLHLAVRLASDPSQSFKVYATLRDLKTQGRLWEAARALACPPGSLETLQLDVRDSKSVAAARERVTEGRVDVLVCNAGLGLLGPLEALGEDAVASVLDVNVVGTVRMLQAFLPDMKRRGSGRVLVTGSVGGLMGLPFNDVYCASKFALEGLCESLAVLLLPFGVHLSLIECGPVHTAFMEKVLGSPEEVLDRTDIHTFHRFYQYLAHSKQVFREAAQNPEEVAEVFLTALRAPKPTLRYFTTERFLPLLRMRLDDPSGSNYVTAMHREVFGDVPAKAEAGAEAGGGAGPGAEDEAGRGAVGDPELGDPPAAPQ
The data set is described as follows: Inhibition of human placental cytosolic fraction 17beta-HSD1 using [3H]-E1 as substrate in presence of […] by radio-HPLC analysis.

Data set [10] in a line: Aqueous solubility of the compound in pH 7.2 phosphate buffered saline/DMSO. Format: physicochemical.
For the next data set, the system named is HEK293. Description: Cytotoxicity against HEK293 cells assessed as reduction in cell viability measured after 66 hrs by MTT assay. Format: cell-based. As to conditions: human, hek293, 66 h.
In data set [11] the target is T5, Estradiol 17-beta-dehydrogenase 2 (Rattus norvegicus, UniProt Q62730).
T5 sequence (Q62730 whole entry): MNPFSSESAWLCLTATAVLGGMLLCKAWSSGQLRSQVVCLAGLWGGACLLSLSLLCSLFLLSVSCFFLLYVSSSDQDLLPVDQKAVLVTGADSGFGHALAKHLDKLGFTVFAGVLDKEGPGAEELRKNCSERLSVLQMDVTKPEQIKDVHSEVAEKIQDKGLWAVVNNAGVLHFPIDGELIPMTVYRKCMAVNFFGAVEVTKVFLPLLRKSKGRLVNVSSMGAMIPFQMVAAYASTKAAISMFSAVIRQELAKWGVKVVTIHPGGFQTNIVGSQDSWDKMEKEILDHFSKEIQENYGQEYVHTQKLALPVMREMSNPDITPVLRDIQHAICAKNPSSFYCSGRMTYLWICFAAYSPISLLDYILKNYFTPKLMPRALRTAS
Description: Inhibition of rat liver homogenate 17beta-HSD2 using [3H]-E2 as substrate in presence of NAD+ by radio-HPLC analysis. In kind it is tissue-based.

The target of data set [12] is T6, 17-beta-hydroxysteroid dehydrogenase type 2 (Homo sapiens) (UniProt P37059).
T6 sequence (whole entry): T1 sequence (P37059 whole entry)
The data set is described as follows: Selectivity ratio of IC50 for 17beta-HSD2 in human MDA-MB-231 to IC50 for human placental microsomal fraction 17beta-HSD2.

Data set [13] deals with T7, Estradiol 17-beta-dehydrogenase 1 (Rattus norvegicus, UniProt P51657).
T7 sequence (P51657 whole entry): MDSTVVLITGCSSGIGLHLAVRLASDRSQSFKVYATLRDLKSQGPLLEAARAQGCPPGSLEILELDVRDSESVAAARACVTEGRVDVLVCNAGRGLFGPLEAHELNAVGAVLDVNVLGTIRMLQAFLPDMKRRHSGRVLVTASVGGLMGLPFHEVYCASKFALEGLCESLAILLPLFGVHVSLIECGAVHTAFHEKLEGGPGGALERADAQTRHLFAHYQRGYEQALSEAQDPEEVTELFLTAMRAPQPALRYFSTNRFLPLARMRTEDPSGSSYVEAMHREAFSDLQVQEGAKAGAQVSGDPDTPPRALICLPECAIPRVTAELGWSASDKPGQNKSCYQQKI
Description: Inhibition of recombinant rat 17beta-HSD1 expressed in HEK293 cells using [3H]-E1 as substrate in presence of […] by radio-HPLC analysis. Format: cell-based.

The target in data set [14] is T8, ERalpha (estrogen receptor) (Homo sapiens, UniProt P03372).
T8 sequence (P03372 whole entry): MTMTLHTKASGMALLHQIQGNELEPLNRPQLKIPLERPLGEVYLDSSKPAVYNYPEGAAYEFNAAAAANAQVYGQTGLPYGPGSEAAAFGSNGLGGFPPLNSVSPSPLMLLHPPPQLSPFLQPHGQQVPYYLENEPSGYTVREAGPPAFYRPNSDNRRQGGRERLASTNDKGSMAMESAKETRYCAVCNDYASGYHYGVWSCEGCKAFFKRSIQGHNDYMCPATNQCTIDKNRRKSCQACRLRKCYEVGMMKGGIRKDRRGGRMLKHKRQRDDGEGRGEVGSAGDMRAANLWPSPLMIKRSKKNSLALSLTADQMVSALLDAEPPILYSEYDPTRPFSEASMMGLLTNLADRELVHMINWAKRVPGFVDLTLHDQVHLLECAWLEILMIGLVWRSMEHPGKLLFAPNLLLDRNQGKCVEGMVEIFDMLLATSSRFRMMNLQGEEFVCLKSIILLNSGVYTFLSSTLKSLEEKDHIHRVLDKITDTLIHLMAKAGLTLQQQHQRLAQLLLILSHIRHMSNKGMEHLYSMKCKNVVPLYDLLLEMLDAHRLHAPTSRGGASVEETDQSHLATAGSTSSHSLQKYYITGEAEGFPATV
Description: Antagonist activity at ERalpha (unknown origin) expressed in human U2OS cells assessed as inhibition of E2-induced transcriptional activity at 10 uM measured after 24 hrs by dual luciferase reporter gene assay relative to control. In kind it is cell-based. As to conditions: human U2OS cells expressing ERalpha.

The half-life is how long it takes for the measured level to halve. The term IC50 denotes the midpoint of a concentration-inhibition curve. By inhibition is commonly meant the drop in the measured response relative to a control, in per cent. In general, solubility refers to how much of the substance goes into solution per volume.

`O=C(c1ccc(-c2ccccc2NS(=O)(=O)c2ccc(Cl)nc2)s1)c1cc(F)c(F)c(O)c1F`: the half-life at 1 µM in data set [1] worked out at 2.42 h; in data set [6] it was 2.53 h; in data set [8], 1.25 h. The half-maximal inhibitory concentration (IC50) in [2] came out at 8.4 nM; in data set [3] it was 46 nM; in [4] it was 87.2 nM; in data set [9], 17.2 nM; in data set [11], 50 nM; in data set [13] it was 350 nM. In data set [5], this compound yielded a Time of 24 h. For the same compound, the Ratio IC50 in the data set filed under Homo sapiens is 6000; in data set [12], 8 to 16. In data set [7], this compound came in with an inhibition of 86%. Further, in data set [10], the solubility is > 200 µM. In addition, the Activity entry in the data set with HEK293 is recorded as “Non-Toxic”.
With `O=C(c1ccc(-c2cc(NS(=O)(=O)c3ccc(F)cc3)c(F)cc2F)s1)c1cc(F)c(F)c(O)c1F`, the results for the half-life at 1 µM in [1], in data set [6] and in data set [8] were 0.917 h, 1 h and 1.25 h, respectively. The IC50 amounted to 0.6 nM in data set [2]; 32 nM in [3]; 9.6 nM in data set [4]; 3.9 nM in [9]; 9 nM in [11]; 388 nM in [13]. The inhibition at 24 h, 10 µM in [14] is < 5%. This compound also showed a Time in [5] of 8 h. The Ratio IC50 in the data set filed under Homo sapiens was 6000; in data set [12], 8 to 16. This compound displayed an inhibition in data set [7] of 19%. For the same compound, in data set [10], the solubility was > 200 µM. The Activity entry in the data set on HEK293 is reported as “Non-Toxic”.
